In patent US5387614A, “Use of sigma receptor ligands as salivary gland stimulants” (University of Iowa Research Foundation, priority 1993, dated 1995):

How the values were obtained:
sigma-binding site = assay: 3H-DTG radioligand saturation binding (Scatchard plot) in submaxillary gland membrane homogenate; set-up: species or system New Zealand white rabbits; details: single binding site; membrane homogenate of acini cells from rabbit submaxillary gland; 4° C., 60 min; spiperone 25 nM
Method: In this procedure, New Zealand white rabbits were sacrificed using 1/2-1 ml of Beuthanasia-D Special (Schering Plough Animal Health, Keniworth, N.J.: 390 mg pentobarital sodium and 50 mg phenytoin sodium per ml) by injecting the preparation into the marginal ear vein. Whole submaxillary glands, free of blood, were dissected and either used immediately or frozen in cold 100 mM tris-HCl (pH 7.4) buffer. Glandular tissue was rinsed with cold 50 mM Tris-HCl (pH 7.4) followed by homogenization for 30 sec (Polytron, Brinkman Instr., setting 7). The homogenate was centrifuged at 800 rpm for 10 min at 4° C. to remove extraneous tissue. Then the supernatant was centrifuged at 75,000 Xg for 15 min at 4° C. (model L8-55, Preparative Ultracentrifuge, Beckman Instruments, Fullerton, Calif.). Following centrifugation, the pellet was homogenized again in 100 mM tris-HCl buffer and centrifuged at 75,000 Xg for 15 min. The resulting pellet containing the membrane fragments was suspended in Tris-HCl buffer to yield a concentration of 250 mg (wet wt) per mL. […]
Spiperone (25 nM) was added to prevent binding to D2 dopamine or 5HT2 serotonin receptors. […] The filter, containing the precipitate, was transferred to a scintillation vial containing 1 mL of tissue solubilizer (Soluene 350, Packard Inst.) and 4 mL of scintillation fluid (Budget Solve , Fisher Scientific, Fair Lawn, N.J.) and counted (Beckman LS 3801). […]

sigma receptors = assay: Radioligand competition experiments in submaxillary gland membrane homogenate; format: binding, New Zealand white rabbits; details: radioligand 3H-DTG (5 nM); rabbit submaxillary gland membranes; 4° C., 60 minutes; spiperone 25 nM; mean ± spread; read-out: averaged IC50
Method: In this procedure, New Zealand white rabbits were sacrificed using 1/2-1 ml of Beuthanasia-D Special (Schering Plough Animal Health, Keniworth, N.J.: 390 mg pentobarital sodium and 50 mg phenytoin sodium per ml) by injecting the preparation into the marginal ear vein. Whole submaxillary glands, free of blood, were dissected and either used immediately or frozen in cold 100 mM tris-HCl (pH 7.4) buffer. Glandular tissue was rinsed with cold 50 mM Tris-HCl (pH 7.4) followed by homogenization for 30 sec (Polytron, Brinkman Instr., setting 7). The homogenate was centrifuged at 800 rpm for 10 min at 4° C. to remove extraneous tissue. Then the supernatant was centrifuged at 75,000 Xg for 15 min at 4° C. (model L8-55, Preparative Ultracentrifuge, Beckman Instruments, Fullerton, Calif.). Following centrifugation, the pellet was homogenized again in 100 mM tris-HCl buffer and centrifuged at 75,000 Xg for 15 min. […]
Spiperone (25 nM) was added to prevent binding to D2 dopamine, or 5HT2 serotonin receptors. […] The filter along with the adhering precipitate was transferred to a scintillation vial containing 1 mL of tissue solubilizer (Soluene 350, Packard Inst., Downers Grove, Ill.) and 4 mL of scintillation fluid (Budget Solve , Fisher Scientific, Fair Lawn, N.J.) and counted (Beckman LS 3801). […] Specific binding was determined by subtracting NSB from total binding. […]

salivary secretion = assay: Saliva flow observed after topical dosing of the rabbit eye; format: in vivo; details: rabbit eye dosed topically (use as dry eye syndrome treatment)
Text: The observations of effective salivary stimulation actually occurred during use of the most preferred compound wherein N=2, and R and R" are methyl, as dry eye syndrome treatment. […] This led to further investigations of this and other compounds as a means of treating dry mouth associated with, for example, Sjogren's syndrome. The present compound for example could be formulated into a conventional lozenge for a topical application directly in the oral cavity to stimulate saliva flow. Such lozenges can either be made by dissolving the drug in water, adding powdered sugar, flavor and a gum (e.g., 7% powdered acacia) to give sufficient adhesiveness. This type of lozenge is harder than a conventional tablet, but dissolves slowly. The lozenge formulation is made by compressing the formula on a tablet press according to the art.

`Cc1ccccc1NC(=N)Nc1ccccc1C` [3H-DTG] gave a Kd (sigma-binding site) of 6 ± 1.2 nM.

For `CN(Cc1cc(Br)cc(Br)c1N)C1CCCCC1` [bromhexine], the IC50 (sigma receptors) was 690 ± 276 nM.

For `CN(C)CCc1ccccc1` [most preferred compound, N,N-dimethyl-2-phenylethylamine], the saliva flow (salivary secretion) was “copious amounts of saliva flowed from about one half of the rabbits”.
